Results reported in paper PMC9926475 (ACS chemical neuroscience, 2022).
Read-outs that look alike come from different tables or passages of the source.

Experiments:
[1] = Pharmacokinetic studies in plasma and brain of mice after i.p. injection; assay type: in vivo, mouse; conditions: for Cmax (mean ± SEM) Brain: normalized to free base dose; for Sex-dependent difference: Brain Total exposure (AUC) / Sex-dependent difference: Plasma Total exposure (AUC): standard t-test, F female, M male, NS not statistically different
[2] = molecular target: N-methyl-D-aspartate receptor (NMDAR); conditions: cited from earlier work
[3] = system: male mice; assay: Forced swim test immobility time 24 h after i.p. treatment; assay type: in vivo, mouse; conditions: for Minimal effective dose to reduce immobility time in the forced swim test: 24 h after injection; for Shape of dose response curve for forced swim test immobility: tested range up to 100 mg/kg
[4] = system: mice; conditions: i.p., cited from earlier work
[5] = i.p.; ref [4]; cited from earlier work
[6] = both sexes, i.p. 5 mg/kg, 10 min was the earliest time point

N[C@]1(c2ccccc2Cl)C[C@@H](O)CCC1=O [(2S,4S)-HNK]
Cmax (mean ± SEM) Brain ([1]; female CD-1 mice, i.p. 5 mg/kg): 234 ± 10.9 ng/g•mg/kg
B:P ratio (brain to plasma AUC ratio) ([1]; female mice, i.p. 5 mg/kg): 0.9
t1/2 Brain (terminal half-life) ([1]; female mice, i.p. 5 mg/kg): 35 min
t1/2 Plasma (terminal half-life) ([1]; female mice, i.p. 5 mg/kg): 42 min
Cmax (mean ± SEM) Brain ([1]; male CD-1 mice, i.p. 5 mg/kg): 127 ± 9.5 ng/g•mg/kg
B:P ratio (brain to plasma AUC ratio) ([1]; male mice, i.p. 5 mg/kg): 0.7
t1/2 Brain (terminal half-life) ([1]; male mice, i.p. 5 mg/kg): 34 min
t1/2 Plasma (terminal half-life) ([1]; male mice, i.p. 5 mg/kg): 39 min
Sex-dependent difference: Brain Total exposure (AUC) [1]: F > M
Sex-dependent difference: Plasma Total exposure (AUC) [1]: F > M

N[C@]1(c2ccccc2Cl)CC[C@@H](O)CC1=O [(2S,5R)-HNK]
Cmax (mean ± SEM) Brain ([1]; female CD-1 mice, i.p. 5 mg/kg): 258 ± 15.4 ng/g•mg/kg
B:P ratio (brain to plasma AUC ratio) ([1]; female mice, i.p. 5 mg/kg): 1.0
t1/2 Brain (terminal half-life) ([1]; female mice, i.p. 5 mg/kg): 31 min
t1/2 Plasma (terminal half-life) ([1]; female mice, i.p. 5 mg/kg): 28 min
Cmax (mean ± SEM) Brain ([1]; male CD-1 mice, i.p. 5 mg/kg): 242 ± 9.8 ng/g•mg/kg
B:P ratio (brain to plasma AUC ratio) ([1]; male mice, i.p. 5 mg/kg): 0.7
Tmax brain ([1]; male mice, i.p. 5 mg/kg): 30 min
t1/2 Brain (terminal half-life) ([1]; male mice, i.p. 5 mg/kg): 40 min
t1/2 Plasma (terminal half-life) ([1]; male mice, i.p. 5 mg/kg): 37 min
Sex-dependent difference: Brain Total exposure (AUC) [1]: M > F
Sex-dependent difference: Plasma Total exposure (AUC) [1]: M > F

N[C@]1(c2ccccc2Cl)CC[C@H](O)CC1=O [(2S,5S)-HNK]
Brain level at 4 h post-treatment ([1]; both sexes, i.p. 5 mg/kg, LLOQ 5.0 ng/ml): below LLOQs
Cmax (mean ± SEM) Brain ([1]; female CD-1 mice, i.p. 5 mg/kg): 129 ± 2.8 ng/g•mg/kg
B:P ratio (brain to plasma AUC ratio) ([1]; female mice, i.p. 5 mg/kg): 1.3
t1/2 Brain (terminal half-life) ([1]; female mice, i.p. 5 mg/kg): 17 min
t1/2 Plasma (terminal half-life) ([1]; female mice, i.p. 5 mg/kg): 34 min
Cmax (mean ± SEM) Brain ([1]; male CD-1 mice, i.p. 5 mg/kg): 138 ± 8.3 ng/g•mg/kg
B:P ratio (brain to plasma AUC ratio) ([1]; male mice, i.p. 5 mg/kg): 1.2
t1/2 Brain (terminal half-life) ([1]; male mice, i.p. 5 mg/kg): 16 min
t1/2 Plasma (terminal half-life) ([1]; male mice, i.p. 5 mg/kg): 27 min

N[C@]1(c2ccccc2Cl)CCC[C@@H](O)C1=O [(2S,6R)-HNK]
Ki ([2]; read-out: NMDAR binding affinity, ref [31]): > 100 µM
Minimal effective dose to reduce immobility time in the forced swim test [3]: 3 mg/kg
Shape of dose response curve for forced swim test immobility [3]: U-shaped dose response curves
Cmax (mean ± SEM) Brain ([1]; female CD-1 mice, i.p. 5 mg/kg): 177 ± 19.8 ng/g•mg/kg
B:P ratio (brain to plasma AUC ratio) ([1]; female mice, i.p. 5 mg/kg): 1.4
t1/2 Brain (terminal half-life) ([1]; female mice, i.p. 5 mg/kg): 45 min
t1/2 Plasma (terminal half-life) ([1]; female mice, i.p. 5 mg/kg): 47 min
Brain Cmax and AUC compared to equivalent dosing with (2R,6R)-HNK ([1]; from Table 1): approximately three-fold lower
Cmax (mean ± SEM) Brain ([1]; male CD-1 mice, i.p. 5 mg/kg): 117 ± 30.6 ng/g•mg/kg
B:P ratio (brain to plasma AUC ratio) ([1]; male mice, i.p. 5 mg/kg): 1.2
t1/2 Brain (terminal half-life) ([1]; male mice, i.p. 5 mg/kg): 45 min
t1/2 Plasma (terminal half-life) ([1]; male mice, i.p. 5 mg/kg): 45 min
Sex-dependent difference: Brain Total exposure (AUC) [1]: F > M
Sex-dependent difference: Plasma Total exposure (AUC) [1]: F > M

N[C@]1(c2ccccc2Cl)CCC[C@H](O)C1=O [(2S,6S)-HNK, (2S,6S)-hydroxynorketamine]
Minimal effective dose to reduce immobility time in the forced swim test [3]: 30 mg/kg
Shape of dose response curve for forced swim test immobility [3]: did not demonstrate U-shaped dose responses
Lowest dose reducing forced swim test immobility time ([4]; ref [4]): 25 mg/kg
Effect on forced swim test immobility time and measures of anhedonia following chronic stress ([4]; mice, 20 mg/kg, ref [23]): reduced forced swim test immobility time and measures of anhedonia
Cmax (mean ± SEM) Brain ([1]; female CD-1 mice, i.p. 5 mg/kg): 993 ± 27.1 ng/g•mg/kg
B:P ratio (brain to plasma AUC ratio) ([1]; female mice, i.p. 5 mg/kg): 1.2
t1/2 Brain (terminal half-life) ([1]; female mice, i.p. 5 mg/kg): 44 min
t1/2 Plasma (terminal half-life) ([1]; female mice, i.p. 5 mg/kg): 46 min
Cmax (mean ± SEM) Brain ([1]; male CD-1 mice, i.p. 5 mg/kg): 712 ± 47.3 ng/g•mg/kg
Cmax and AUC, fold greater than those of (2R,6R)-HNK ([1]; male mice, equivalent doses): 2-3 fold
B:P ratio (brain to plasma AUC ratio) ([1]; male mice, i.p. 5 mg/kg): 1.0
t1/2 Brain (terminal half-life) ([1]; male mice, i.p. 5 mg/kg): 41 min
t1/2 Plasma (terminal half-life) ([1]; male mice, i.p. 5 mg/kg): 44 min
Sex-dependent difference: Brain Total exposure (AUC) [1]: F > M
Sex-dependent difference: Plasma Total exposure (AUC) [1]: F > M
Lowest dose reducing escape failures in the learned helplessness test [5]: 75 mg/kg

C[C@@H]1CC[C@@](N)(c2ccccc2Cl)C(=O)[C@@H]1O [(5R)-methyl-(2R,6R)-HNK, (5R)-methyl-(2R,6R)-hydroxynorketamine]
Minimal effective dose to reduce immobility time in the forced swim test [3]: 1 mg/kg
Doses at which immobility time was reduced relative to vehicle ([3]; 24 h after treatment): 1 to 10 mg/kg
Brain to plasma AUC ratio ([1]; both sexes, i.p. 5 mg/kg): 0.4
Plasma elimination half-life ([1]; both sexes, i.p. 5 mg/kg): 49 min
Tmax brain [1, 6]: 10 min
Tmax plasma (time of observed maximal concentrations) [1, 6]: 10 min
Cmax (mean ± SEM) Brain ([1]; female CD-1 mice, i.p. 5 mg/kg): 352 ± 22.4 ng/g•mg/kg
B:P ratio (brain to plasma AUC ratio) ([1]; female mice, i.p. 5 mg/kg): 0.4
t1/2 Brain (terminal half-life) ([1]; female mice, i.p. 5 mg/kg): 41 min
t1/2 Plasma (terminal half-life) ([1]; female mice, i.p. 5 mg/kg): 49 min
Cmax (mean ± SEM) Brain ([1]; male CD-1 mice, i.p. 5 mg/kg): 324 ± 13.0 ng/g•mg/kg
B:P ratio (brain to plasma AUC ratio) ([1]; male mice, i.p. 5 mg/kg): 0.4
t1/2 Brain (terminal half-life) ([1]; male mice, i.p. 5 mg/kg): 48 min
t1/2 Plasma (terminal half-life) ([1]; male mice, i.p. 5 mg/kg): 49 min
Sex-dependent difference: Brain Total exposure (AUC) [1]: M > F
Sex-dependent difference: Plasma Total exposure (AUC) [1]: M > F

CNC1(c2ccccc2Cl)CCCCC1=O (centres unmarked) [ketamine, reference compound]
Ki ([2]; read-out: Ki, inhibitory actions on NMDARs, ref [19],[31],[32]): 0.25 to 1.06 µM
